In US20050147670A1, “Oral disintegrating dosage forms” (IMPAX Laboratories Inc., priority 2002, published 2005):

Legend:
[1] = Bioavailability study of 25/250 mg orally disintegrating tablets in healthy adult volunteers, fasting; format: in vivo; details: human, oral, Mean ± SD, 25/250 mg ODT, 36 healthy adult volunteers, plasma; for AUC(0-inf): read-out: AUCinf_obs
[2] = combination of carbidopa and levodopa, no entacapone; cited from earlier work

SMILES: C[C@@](Cc1ccc(O)c(O)c1)(NN)C(=O)O [Carbidopa]
- Cmax [1]: 98.5 ± 38.3 ng/mL
- Tmax [1]: 2.8 ± 1 h
- AUC(0-inf) [1]: 560 ± 197 ng·h/mL

SMILES: N[C@@H](Cc1ccc(O)c(O)c1)C(=O)O [Levodopa, (−)-L-α-amino-β-(3,4-dihydroxybenzene) propanoic acid monohydrate]
- Cmax [1]: 1470 ± 567 ng/mL
- Tmax [1]: 1.7 ± 0.8 h
- AUC(0-inf) [1]: 4480 ± 1580 ng·h/mL
- levodopa half-life without entacapone [2]: 1.3 h
